The results in this text go back to ChEMBL document CHEMBL2417501, “Synthesis of 4-aminoquinoline-pyrimidine hybrids as potent antimalarials and their mode of action studies” (Eur J Med Chem, 2013).

The test system of data set [1] is Plasmodium falciparum. Description: Antimalarial activity against chloroquine-resistant Plasmodium falciparum Dd2. In kind it is functional, organism-based.
Data set [2] can be described thus: Cytotoxicity against human HEL cells. In kind it is cell-based.
A short description of data set [3]: Cytotoxicity against cat CRFK cells. In kind it is cell-based, Felis catus.
In data set [4] the test system is Human alphaherpesvirus 1. Description: Antiviral activity against TK-negative Herpes simplex virus 1 KOS infected in human HEL cells assessed as reduction of virus-induced cytopathogenicity. Format: functional, organism-based. As to conditions: Human alphaherpesvirus 1, KOS.
Data set [5] concerns Vesicular stomatitis virus. Briefly: Antiviral activity against Vesicular stomatitis virus infected in human HEL cells assessed as reduction of virus-induced cytopathogenicity. Format: functional, organism-based. In general terms: Cytopathic effects are the visible damage that an infection or toxin causes in cultured cells.
For data set [6], the system named is Cytomegalovirus. Briefly: Antiviral activity against Cytomegalovirus Davis infected in human HEL cells assessed as reduction of plaque formation. In kind it is functional, organism-based. Conditions: Human betaherpesvirus 5, Davis.
A further data set deals with Feline coronavirus. Briefly: Antiviral activity against Feline coronavirus infected in cat CRFK cells assessed as reduction of virus-induced cytopathogenicity by MTS assay. In kind it is functional, organism-based. Conditions: Alphacoronavirus 1, CRFK.
In data set [7] the test system is Cytomegalovirus. Briefly: Antiviral activity against Cytomegalovirus AD-169 infected in human HEL cells assessed as reduction of plaque formation. Format: functional, organism-based. Conditions: Human betaherpesvirus 5, AD-169, HEL.
Data set [8] deals with Influenza A virus. Description: Antiviral activity against influenza A virus H1N1 subtype infected in dog MDCK cells assessed as reduction of virus-induced cytopathogenicity by MTS assay. Format: functional, organism-based.
A further data set concerns Influenza B virus. Description: Antiviral activity against influenza B virus infected in dog MDCK cells assessed as reduction of virus-induced cytopathogenicity by MTS assay. Format: functional, organism-based.
Data set [9] can be described thus: (§1) Cytotoxicity against MDCK cells assessed as cell viability after 4 days by MTS assay. Conditions: dog, MDCK cells. Format: cell-based, Canis lupus familiaris.
For data set [10], the system named is Influenza A virus. Briefly: Antiviral activity against influenza A virus […] subtype infected in dog MDCK cells assessed as reduction of virus-induced cytopathogenicity by MTS assay. Format: functional, organism-based. Conditions: read-out: EC50.
Another data set deals with Sindbis virus. Briefly: Antiviral activity against Sindbis virus infected in african green monkey Vero cells assessed as reduction of virus-induced cytopathogenicity. Format: functional, organism-based.
Data set [11] has as its system Respiratory syncytial virus. Briefly: Antiviral activity against Respiratory syncytial virus infected in human HeLa cells assessed as reduction of virus-induced cytopathogenicity. Format: functional, organism-based.
Data set [12] has as its system Human alphaherpesvirus 1. Briefly: Antiviral activity against Herpes simplex virus-1 KOS infected in human HEL cells assessed as reduction of virus-induced cytopathogenicity. Format: functional, organism-based. Conditions: Human alphaherpesvirus 1, KOS.
Data set [13] has as its system Coxsackievirus. Briefly: Antiviral activity against Coxsackievirus B4 infected in human HeLa cells assessed as reduction of virus-induced cytopathogenicity. In kind it is functional, organism-based.
Another data set deals with MDCK. The description is as §1. Format: cell-based, Canis lupus familiaris. As to conditions: dog, mdck, 96 h.
Another data set concerns Punta Toro virus. Briefly: Antiviral activity against […] infected in african green monkey Vero cells assessed as reduction of virus-induced cytopathogenicity. Format: functional, organism-based.
Data set [14] in a line: Cytotoxicity against human HeLa cells. Format: cell-based.
The test system of data set [15] is Mammalian orthoreovirus 1. Description: Antiviral activity against Reovirus-1 infected in african green monkey Vero cells assessed as reduction of virus-induced cytopathogenicity. Format: functional, organism-based. Conditions: Mammalian orthoreovirus 1, Vero.
Data set [16] has as its system Plasmodium falciparum. Description: Antimalarial activity against chloroquine-sensitive Plasmodium falciparum D10 by two-fold dilution technique. Format: functional, organism-based.
The subject of data set [17] is Human alphaherpesvirus 3. Briefly: Antiviral activity against TK-positive Varicella-zoster virus OKA infected in human HEL cells assessed as reduction of plaque formation. Format: functional, cell-based. Conditions: Human alphaherpesvirus 3, strain Oka vaccine.
The test system of data set [18] is Coxsackievirus. Description: Antiviral activity against Coxsackievirus B4 infected in african green monkey Vero cells assessed as reduction of virus-induced cytopathogenicity. Format: functional, organism-based.
A further data set relates to Human respirovirus 3. Description: Antiviral activity against Parainfluenza-3 virus infected in african green monkey Vero cells assessed as reduction of virus-induced cytopathogenicity. In kind it is functional, organism-based. Conditions: Human respirovirus 3, Vero.
The subject of data set [19] is Vesicular stomatitis virus. Briefly: Antiviral activity against Vesicular stomatitis virus infected in human HeLa cells assessed as reduction of virus-induced cytopathogenicity. In kind it is functional, organism-based.
A short description of data set [20]: Inhibition of beta-hematin formation at 1 mg/ml. Format: functional.
A further data set has as its system Felid alphaherpesvirus 1. Description: Antiviral activity against feline herpesvirus infected in cat CRFK cells assessed as reduction of virus-induced cytopathogenicity by MTS assay. Format: functional, organism-based. As to conditions: Felid alphaherpesvirus 1, CRFK.
Data set [21] is described as follows: Cytotoxicity against african green monkey Vero cells. Conditions: chlorocebus sabaeus. Format: cell-based.
In data set [22] the test system is Human alphaherpesvirus 3. Briefly: Antiviral activity against […] Varicella-zoster virus 07-1 infected in human HEL cells assessed as reduction of plaque formation. As to conditions: Human alphaherpesvirus 3, 07-1, HEL. In kind it is functional, organism-based.
In a further data set the test system is Human alphaherpesvirus 2. Description: Antiviral activity against Herpes simplex virus-2 G infected in human HEL cells assessed as reduction of virus-induced cytopathogenicity. In kind it is functional, organism-based. Conditions: Human alphaherpesvirus 2, strain G.
Data set [23] is described as follows: Selectivity index, ratio of CC50 for MDCK cells to IC50 for chloroquine-resistant Plasmodium falciparum Dd2. Format: functional.

As usually defined, the IC50 is the concentration that gives 50% inhibition. As usually defined, the CC50 is the concentration giving 50% cytotoxicity. The term EC50 denotes the concentration needed to bring the measured effect to its halfway point. Usually inhibition stands for the change of the read-out against control, counted positive when it falls.

Take `CS(=O)(=O)c1ccc(-c2cnc(N)c(-c3ccc(C(F)(F)F)nc3)c2)cc1` [MMV-048]: the IC50 in the data set with Plasmodium falciparum [1] is 0.0178 µM.
Take `Nc1nc2c(ncn2COC(CO)CO)c(=O)[nH]1` [GANCICLOVIR]: the MCC in data set [2] was above 100 µM. The same compound yielded a 50% cytotoxic concentration (CC50) in data set [3] (CRFK cells) above 100 µM. Also, the concentration for a half-maximal effect (EC50) with Human alphaherpesvirus 1 [4] is 4 µM; in data set [5], above 100 µM; with Cytomegalovirus [6] it was 5.98 µM; in the data set on Feline coronavirus, above 100 µM; with Cytomegalovirus [7], 7.87 µM.
For `CC(N)C12CC3CC(CC(C3)C1)C2` (stereo unspecified) [RIMANTADINE], the EC50 in the data set on Influenza A virus [8] was 6.4 µM; with Influenza B virus it was above 200 µM; in the data set with Influenza A virus [10] it was 0.01 µM. Further, in [9], the MCC at 96 h is above 200 µM.
Regarding `CCOC(=O)c1c(C)nc(NCCCCNc2ccnc3cc(Cl)ccc23)nc1-c1ccc(Cl)cc1`, the EC50 in the data set with Influenza A virus [8] was above 0.8 µM; with Sindbis virus, above 0.8 µM; in the data set on Influenza B virus it was above 0.8 µM; in [11], above 100 µM; in the data set on Human alphaherpesvirus 1 [12], above 20 µM; in the data set on Coxsackievirus [13] it was above 100 µM. Also, the 50% effective concentration (EC50) in the data set on Punta Toro virus is above 0.8 µM; in [15] it was above 0.8 µM; in the data set with Human alphaherpesvirus 3 [17] it was above 4 µM; with Coxsackievirus [18], above 0.8 µM; in the data set with Human respirovirus 3, above 0.8 µM; with Human alphaherpesvirus 1 [4] it was above 20 µM. Besides, the half-maximal effective concentration (EC50) in data set [5] was above 20 µM; in the data set on Cytomegalovirus [6], above 4 µM; in data set [19], above 100 µM; in the data set on Felid alphaherpesvirus 1, above 100 µM; in the data set with Human alphaherpesvirus 3 [22], above 4 µM; in the data set on Feline coronavirus, above 100 µM. For the same compound, the figures for the EC50 with Cytomegalovirus [7], with Human alphaherpesvirus 2 and in the data set on Influenza A virus [10] were above 4 µM, above 20 µM and above 0.8 µM, respectively. Moreover, the MCC in data set [2] is 20 µM; in data set [14], above 100 µM; in [21], 4 µM. Also, the CC50 with MDCK was 2.2 µM; in data set [3] (crfk), above 100 µM. Moreover, in [9], the MCC at 96 h is at least 0.8 µM. Further, in the data set with Plasmodium falciparum [16], the IC50 was 1.93 µM. Besides, the inhibition in data set [20] was 56%.
Regarding `CCOC(=O)c1c(C)nc(OCCCNc2ccnc3cc(Cl)ccc23)nc1-c1ccccc1`, the EC50 with Influenza A virus [8] is above 4 µM; in the data set on Sindbis virus, above 20 µM; in the data set with Influenza B virus, above 4 µM; in data set [11] it was above 100 µM; in the data set with Human alphaherpesvirus 1 [12] it was above 100 µM; in the data set with Coxsackievirus [13], above 100 µM. Further, the EC50 in the data set on Punta Toro virus was above 20 µM; in data set [15], above 20 µM; with Human alphaherpesvirus 3 [17] it was above 4 µM; in the data set with Coxsackievirus [18], above 20 µM; in the data set on Human respirovirus 3, above 20 µM; with Human alphaherpesvirus 1 [4], above 100 µM. Further, the EC50 was above 100 µM in [5]; 2.53 µM with Cytomegalovirus [6]; above 100 µM in data set [19]; above 100 µM in the data set on Felid alphaherpesvirus 1; above 4 µM in the data set with Human alphaherpesvirus 3 [22]; above 100 µM in the data set with Feline coronavirus. In addition, the EC50 in the data set with Cytomegalovirus [7] is 2 µM; with Human alphaherpesvirus 2, above 100 µM; in the data set with Influenza A virus [10], above 4 µM. In the data set with Plasmodium falciparum [1], this compound had a half-maximal inhibitory concentration (IC50) of 0.483 µM. Moreover, the MCC was above 4 µM in [2], above 100 µM in data set [14] and 100 µM in data set [21]. Moreover, the CC50 in the data set with MDCK was 21.1 µM; in [3] (crfk) it was above 100 µM. The MCC at 96 h in data set [9] turned out to be 20 µM. In addition, the “Ratio CC50/IC50” value in [23] is 43.6. Further, the inhibition in [20] turned out to be 87%.
For the compound `C[C@H]1[C@H](OC(=O)CCC(=O)O)O[C@@H]2O[C@@]3(C)CC[C@H]4[C@H](C)CC[C@@H]1[C@@]24OO3` [ARTESUNATE], the IC50 in the data set on Plasmodium falciparum [1] turned out to be 0.0312 µM.
For `CCOC(=O)c1c(C)nc(NCCCCNc2ccnc3cc(Cl)ccc23)nc1-c1ccc(F)cc1`, the 50% effective concentration (EC50) in the data set with Influenza A virus [8] is above 4 µM; with Sindbis virus it was above 4 µM; in the data set with Influenza B virus it was above 4 µM; in data set [11], above 100 µM; in the data set with Human alphaherpesvirus 1 [12], above 100 µM; in the data set with Coxsackievirus [13], above 100 µM. Also, the EC50 in the data set with Punta Toro virus is above 4 µM; in data set [15], above 4 µM; with Human alphaherpesvirus 3 [17], above 4 µM; with Coxsackievirus [18], above 4 µM; with Human respirovirus 3, above 4 µM; in the data set with Human alphaherpesvirus 1 [4], above 100 µM. Further, the EC50 was above 100 µM in [5]; above 4 µM in the data set with Cytomegalovirus [6]; above 100 µM in data set [19]; above 100 µM with Felid alphaherpesvirus 1; above 4 µM in the data set with Human alphaherpesvirus 3 [22]; above 100 µM in the data set with Feline coronavirus. Further, the EC50 was above 4 µM in the data set on Cytomegalovirus [7], above 100 µM in the data set with Human alphaherpesvirus 2 and above 4 µM with Influenza A virus [10]. The figures for the MCC in [2], in data set [14] and in data set [21] were at least 20 µM, above 100 µM and 20 µM, respectively. Also, the CC50 is 11.4 µM in the data set on MDCK and above 100 µM in [3] (crfk). Besides, in data set [9], the MCC at 96 h was 20 µM. Also, in the data set on Plasmodium falciparum [16], it took 2.76 µM to reach half-maximal inhibition (IC50). The same compound had an inhibition in data set [20] of 59%.
